Measured values published in patent US12286429B2, “5-oxo-1,2,3,5,8,8a-hexahydroindolizine-3-carboxamide derivatives useful as a factor XIa inhibitors” (Janssen Pharmaceutica NV, priority 2021, dated 2025).

Experiments:
Factor XIa = Factor XIa (Homo sapiens, UniProt P03951); assay: Factor XIa inhibition assay utilizing a fluorophore-quencher pair peptide substrate (FLINT); assay type: biochemical; details: 11-point, 3-fold serial dilution, top 100 nM; 30 min preincubation; 15 μM 5Fam-KLTRAETV-K5Tamra substrate; kinetic reads over 30 min; read-out: FXIa Inhibition IC50
Sequence of Factor XIa (P03951 388-625 limits assumed): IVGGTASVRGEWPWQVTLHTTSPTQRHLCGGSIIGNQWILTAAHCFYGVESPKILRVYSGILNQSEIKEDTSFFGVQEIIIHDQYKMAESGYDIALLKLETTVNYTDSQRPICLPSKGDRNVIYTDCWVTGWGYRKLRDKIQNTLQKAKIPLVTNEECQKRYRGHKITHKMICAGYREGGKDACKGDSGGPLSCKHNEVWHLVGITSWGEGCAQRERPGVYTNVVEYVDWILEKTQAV
Sequence of Factor XIa (P03951 19-387 partner limits assumed): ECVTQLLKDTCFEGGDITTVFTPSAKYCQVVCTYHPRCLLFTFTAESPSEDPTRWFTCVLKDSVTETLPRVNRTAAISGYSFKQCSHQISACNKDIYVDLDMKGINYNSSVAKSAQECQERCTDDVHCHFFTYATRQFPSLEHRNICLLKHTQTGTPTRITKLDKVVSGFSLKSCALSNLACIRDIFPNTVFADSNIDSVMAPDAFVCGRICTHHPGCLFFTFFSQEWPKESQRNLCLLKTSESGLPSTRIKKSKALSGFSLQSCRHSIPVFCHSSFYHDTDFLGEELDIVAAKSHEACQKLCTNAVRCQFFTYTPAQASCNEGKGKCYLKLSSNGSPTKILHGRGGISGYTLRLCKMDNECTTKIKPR
How it was run: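 FXIa ([…]) preincubated 30 min with compound (11-point, 3-fold, top 100 nM, 2% DMSO) in Tris pH 7.5, NaCl, CaCl2, BSA, CHAPS; 15 μM 5Fam-KLTRAETV-K5Tamra substrate then added. Fluorescence (485/520 nm) read kinetically over 30 min at room temperature; IC50 by 4-parameter fit.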

human plasma kallikrein = human plasma kallikrein (Homo sapiens, UniProt P03952); assay: Kallikrein inhibition assay utilizing a quenched AMC peptide substrate (FLINT); assay type: biochemical; details: 11-point, 3-fold serial dilution, top 1 μM; 30 min preincubation; 2 nM kallikrein; 50 μM Z-Gly-Pro-Arg-AMC; kinetic reads over 30 min
Sequence of human plasma kallikrein (P03952 391-638 limits assumed): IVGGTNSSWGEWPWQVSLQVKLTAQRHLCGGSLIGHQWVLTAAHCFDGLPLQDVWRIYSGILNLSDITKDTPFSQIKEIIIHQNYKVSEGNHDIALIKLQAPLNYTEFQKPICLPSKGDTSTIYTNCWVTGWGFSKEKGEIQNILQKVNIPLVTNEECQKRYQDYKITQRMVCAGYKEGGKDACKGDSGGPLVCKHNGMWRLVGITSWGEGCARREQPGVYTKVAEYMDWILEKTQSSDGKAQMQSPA
Sequence of human plasma kallikrein (P03952 20-390 partner limits assumed): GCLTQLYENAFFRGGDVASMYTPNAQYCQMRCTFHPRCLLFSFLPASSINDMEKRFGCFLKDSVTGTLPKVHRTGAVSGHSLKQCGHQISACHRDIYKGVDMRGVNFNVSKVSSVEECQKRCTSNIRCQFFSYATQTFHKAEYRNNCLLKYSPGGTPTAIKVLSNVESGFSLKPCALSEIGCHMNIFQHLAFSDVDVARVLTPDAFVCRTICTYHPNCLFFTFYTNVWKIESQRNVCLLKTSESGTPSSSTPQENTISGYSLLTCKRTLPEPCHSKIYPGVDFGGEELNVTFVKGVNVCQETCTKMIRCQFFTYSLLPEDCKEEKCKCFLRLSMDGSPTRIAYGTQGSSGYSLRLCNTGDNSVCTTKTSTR
How it was run: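 Human plasma kallikrein (2 nM final) was pre-incubated 30 min at room temperature with compound (11-point 3-fold series, top 1 μM, 2% DMSO) in Tris pH 7.5, NaCl, CaCl2, BSA, CHAPS buffer. Reaction started with 50 μM Z-Gly-Pro-Arg-AMC (KM 40 μM), and fluorescence (340/440 nm) was read kinetically over 30 min. IC50 came from a 4-parameter logistic fit.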

Cc1nc(-c2ccc(NC(=O)[C@@H]3CC[C@@H]4CC(c5c(-n6cnnn6)ccc(Cl)c5F)=CC(=O)N43)cc2)co1 [ID No. 20, (3S,8aR)-7-(3-Chloro-2-fluoro-6-(1H-tetrazol-1-yl)phenyl)-N-(4-(2-methyloxazol-4-yl)phenyl)-5-oxo-1,2,3,5,8,8a-hexahydroindolizine-3-carboxamide]
IC50 (Factor XIa): 0.0259 µM
IC50 (human plasma kallikrein): 0.112 µM

O=C(Nc1ccc2[nH]nnc2c1)[C@@H]1CC[C@@H]2CC(c3c(-n4cnnn4)ccc(Cl)c3F)=CC(=O)N21 [ID No. 21, (3S,8aR)—N-(1H-Benzo[d][1,2,3]triazol-5-yl)-7-(3-chloro-2-fluoro-6-(1H-tetrazol-1-yl)phenyl)-5-oxo-1,2,3,5,8,8a-hexahydroindolizine-3-carboxamide]
IC50 (Factor XIa): 0.0091 µM
IC50 (human plasma kallikrein): 0.0374 µM

NC(=O)c1ccc(NC(=O)[C@@H]2CC[C@@H]3CC(c4c(-n5cc(C(F)(F)F)nn5)ccc(Cl)c4F)=CC(=O)N32)cc1F [ID No. 24, (3S,8aR)—N-(4-Carbamoyl-3-fluorophenyl)-7-(3-chloro-2-fluoro-6-(4-(trifluoromethyl)-1H-1,2,3-triazol-1-yl)phenyl)-5-oxo-1,2,3,5,8,8a-hexahydroindolizine-3-carboxamide]
IC50 (Factor XIa): 0.0382 µM
IC50 (human plasma kallikrein): 0.0761 µM

NC(=O)c1ccc(NC(=O)[C@@H]2CC[C@@H]3CC(c4cc(Cl)ccc4-n4cc(C(F)(F)F)nn4)=CC(=O)N32)cc1F [ID No. 25, (3S,8aR)—N-(4-Carbamoyl-3-fluorophenyl)-7-(5-chloro-2-(4-(trifluoromethyl)-1H-1,2,3-triazol-1-yl)phenyl)-5-oxo-1,2,3,5,8,8a-hexahydroindolizine-3-carboxamide]
IC50 (Factor XIa): 0.0281 µM
IC50 (human plasma kallikrein): 0.116 µM

CN(C)c1ccnc2ccc(NC(=O)C3CCC4CC(c5c(-n6cnnn6)ccc(Cl)c5F)=CC(=O)N43)cc12 (stereo not shown) [compound 87]
IC50 (Factor XIa): 0.0208 µM
IC50 (human plasma kallikrein): 0.0649 µM

CN(C)c1ccnc2ccc(NC(=O)C3CCC4CC(c5c(-n6cc(Cl)nn6)ccc(Cl)c5F)=CC(=O)N43)cc12 (stereo not shown) [compound 88]
IC50 (Factor XIa): > 0.05 µM
IC50 (human plasma kallikrein): 0.16 µM

CN(C)c1ccnc2ccc(NC(=O)C3CCC4CC(c5c(-n6cc(C(F)(F)F)nn6)ccc(Cl)c5F)=CC(=O)N43)cc12 (stereo not shown) [compound 89]
IC50 (Factor XIa): > 0.05 µM
IC50 (human plasma kallikrein): 0.637 µM

[2H]c1nnnn1-c1ccc(Cl)c(F)c1C1=CC(=O)N2C(CCC2C(=O)Nc2ccc3c(c2)C2(CC2)C(=O)N3)C1 (stereo not shown) [compound 96]
IC50 (Factor XIa): 0.0422 µM
IC50 (human plasma kallikrein): 0.128 µM

CC1C(=O)Nc2c(NC(=O)[C@@H]3CC[C@@H]4CC(c5c(-n6cc(C(F)(F)F)nn6)ccc(Cl)c5F)=CC(=O)N43)cccc21 (stereo partly shown) [compound 102]
IC50 (Factor XIa): > 0.05 µM
IC50 (human plasma kallikrein): 0.57 µM

Cn1nc2ccc(NC(=O)C3CCC4CC(c5c(-n6cc(Cl)nn6)ccc(Cl)c5F)=CC(=O)N43)cc2n1 (stereo not shown) [compound 105]
IC50 (Factor XIa): > 0.05 µM
IC50 (human plasma kallikrein): 0.12 µM

Cn1nc2ccc(NC(=O)C3CCC4CC(c5c(-n6cc(C(F)(F)F)nn6)ccc(Cl)c5F)=CC(=O)N43)cc2n1 (stereo not shown) [compound 106]
IC50 (Factor XIa): > 0.05 µM
IC50 (human plasma kallikrein): 0.497 µM
